This note sets out measurements from patent US6949519B2, “Macrolide solvates” (Sandoz AG, priority 2000, dated 2005).

SMILES strings stand for the structures.

What all share (assay type): physicochemical
The nature of data set [1]: Stability and comparison example: samples set out for 6 weeks at 75% relative humidity at elevated temperature; potency and degradation by HPLC, water by Karl Fischer, X-ray powder diffraction. To be noted: for POTENCY (%): 75% relative humidity, temperature of 400 (so in the source); for POTENCY (%) / Degradation (%): HPLC, anhydrous basis; for WATER (%): Karl Fischer. On the procedure:
• 5.3% of water, and • 2.8% of water are set out for 6 weeks to an environment having a relative humidity of 75% at a temperature of 400. Potency (content) of azithromycin, azithromycin degradation and water content in the samples are determined in week 0, week 2, week 4 and week 6. Potency and degradation are determined on azithromycin anhydrous basis by HPLC. The water content is determined by the Karl Fischer method. Results are Obtained • for azithromycin comprising 5.3% of water as set out in TABLE 1 below, • for azithromycin comprising 2.8% of water as set out in TABLE 2 below:
The potency of azithromycin in % of each sample within the corresponding time period is set out in TABLE 1 and TABLE 2 under “Potency (%)”.
The degradation of azithromycin in % of each sample within the corresponding time period is set out in TABLE 1 and TABLE 2 under “Degradation (%).
The water content in % of each sample within the corresponding time period is indicated in TABLE 1 and TABLE 2 under “Water (%)”.

A short description of data set [2]: Water content (K. Fischer) and X-ray powder diffraction pattern at room temperature under normal air humidity conditions. The method, then:
In the following examples all temperatures are in degree Centigrade and are uncorrected. The X-ray powder diffraction pattern of azithromycin in the form of a monohydrate obtained according to the following example corresponds to that of azithromycin in the form of a monohydrate. […] Water content (% w/w) is determined by the K. Fischer
To a suspension of 20 g of azithromycin in 83 ml of water, HCl is added until dissolution occurs. The solution obtained is filtrated, in order to remove undissolved particles, and the filtrate obtained is added dropwise to 103 ml of water whilst adjusting the pH to 10 to 11 by addition of 20% NaOH at a temperature of ca. 55° C. A solid precipitates, is filtrated off, washed and dried until a water content of 4.0 to 6.5% is achieved. 18.4 g of azithromycin in the form of a monohydrate in crystalline form are obtained. Water content: 6.0% Water content after 2 days at room temperature under normal air humidity conditions: 6.3% Water content after 13 days at room temperature under normal air humidity conditions: 6.3%

The nature of data set [3]: Stability and comparison example: samples set out for 6 weeks at 75% relative humidity at elevated temperature; potency and degradation by HPLC, water by Karl Fischer, X-ray powder diffraction. To be noted: 6 weeks under normal air humidity conditions at elevated temperatures.

With `CC[C@H]1OC(=O)[C@H](C)[C@@H](O[C@H]2C[C@@](C)(OC)[C@@H](O)[C@H](C)O2)[C@H](C)[C@@H](O[C@@H]2O[C@H](C)C[C@H](N(C)C)[C@H]2O)[C@](C)(O)C[C@@H](C)CN(C)[C@H](C)[C@@H](O)[C@]1(C)O` [azithromycin comprising 5.3% of water, 9-deoxo-9a-aza-9a-methyl-9a-homoerythromycin A], the “POTENCY (%)” value in data set [1] (week 0) is 99.8%; in data set [1] (week 2), 98.9%; in data set [1] (week 4), 99.5%; in data set [1] (week 6), 99.5%. Also, the “WATER (%)” value in data set [1] (week 0) turned out to be 5.3%; in data set [1] (week 2, 75% humidity, 40° C.), 5.3%; in data set [1] (week 4, 75% humidity, 40° C.) it was 5.3%; in data set [1] (week 6, 75% humidity, 40° C.), 5.3%. Further, the “Degradation (%)” value stood at 0.1% in data set [1] (week 2, 75% humidity, 40° C.); 0.1% in data set [1] (week 4, 75% humidity, 40° C.); 0.1% in data set [1] (week 6, 75% humidity, 40° C.).
Turning to `CC[C@H]1OC(=O)[C@H](C)[C@@H](O[C@H]2C[C@@](C)(OC)[C@@H](O)[C@H](C)O2)[C@H](C)[C@@H](O[C@@H]2O[C@H](C)C[C@H](N(C)C)[C@H]2O)[C@](C)(O)C[C@@H](C)CN(C)[C@H](C)[C@@H](O)[C@]1(C)O` [azithromycin according to the present invention] [9-deoxo-9a-aza-9a-methyl-9a-homoerythromycin A], the “Water content compared with week 0” value in data set [1] (40° C., 75% humidity, within 4 weeks and even 6 weeks) is recorded as “remains substantially the same as in week 0”. In addition, the “Time for which the X-ray powder diffraction pattern (crystalline structure) is maintained” value in data set [1] (normal air humidity conditions, even at elevated temperatures) is on record as “at least 2 weeks”. Moreover, in data set [1] (week 6, 75% humidity, 40° C.), the “Degradation (%)” value is listed as approximately 0.1%.
On to `CC[C@H]1OC(=O)[C@H](C)[C@@H](O[C@H]2C[C@@](C)(OC)[C@@H](O)[C@H](C)O2)[C@H](C)[C@@H](O[C@@H]2O[C@H](C)C[C@H](N(C)C)[C@H]2O)[C@](C)(O)C[C@@H](C)CN(C)[C@H](C)[C@@H](O)[C@]1(C)O` [azithromycin comprising 2.8% of water, 9-deoxo-9a-aza-9a-methyl-9a-homoerythromycin A, reference compound], for which the “POTENCY (%)” value came out at 99.7% in data set [1] (week 0) and 91.6% in data set [1] (week 6). Further, the “WATER (%)” value is recorded as 2.8% in data set [1] (week 0); 2.8% in data set [1] (week 2, 75% humidity, 40° C.); 3.3% in data set [1] (week 4, 75% humidity, 40° C.); 3.6% in data set [1] (week 6, 75% humidity, 40° C.). Further, the “Degradation (%)” value in data set [1] (week 2, 75% humidity, 40° C.) is reported as 2.5%; in data set [1] (week 2, 75% humidity, 40° C., listed as azithromycin in the form of a monohydrate having a water content of 2.8% to 3.6%) it was 2.5%; in data set [1] (week 4, 75% humidity, 40° C.), 6.1%; in data set [1] (week 6, 75% humidity, 40° C.) it was 6.6%; in data set [1] (week 6, 75% humidity, 40° C., listed as azithromycin in the form of a monohydrate having a water content of 2.8% to 3.6%) it was approximately 7%.
As for `CC[C@H]1OC(=O)[C@H](C)[C@@H](O[C@H]2C[C@@](C)(OC)[C@@H](O)[C@H](C)O2)[C@H](C)[C@@H](O[C@@H]2O[C@H](C)C[C@H](N(C)C)[C@H]2O)[C@](C)(O)C[C@@H](C)CN(C)[C@H](C)[C@@H](O)[C@]1(C)O` [Example, 9-deoxo-9a-aza-9a-methyl-9a-homoerythromycin A], the Water content came to 6.3% in data set [2] (after 2 days at room temperature under normal air humidity conditions); 6.3% in data set [2] (after 13 days at room temperature under normal air humidity conditions); 6.0% in data set [2] (as obtained after drying, % w/w, K. Fischer). In data set [2] (on day 1, on day 2 and on day 13), the “X-ray diffraction powder pattern” value is reported as “corresponds to the X-ray diffraction powder pattern of azithromycin in the form of a monohydrate”. The “Crystallinity and X-ray powder diffraction pattern on storage” value in data set [3] was “maintains its crystallinity and its X-ray powder diffraction pattern”. Further, the “Degradation products on storage” value in data set [3] is recorded as “contains substantially no degration products”.
